Patent US12458021B2, “Microbiocidal derivatives” (SYNGENTA CROP PROTECTION AG, priority 2019, dated 2025)

Columns and labels:
Alternaria solani = Alternaria solani / tomato / leaf disc (early blight); format: in vivo; settings: foliar, tomato leaf disks cv. Baby, inoculated 2 days after application, assessed 5-7 days after application, read-out: control of Alternaria solani (percent disease control compared to untreated)
Method: Example B1: Alternaria solani/Tomato/Leaf Disc (Early Blight) Tomato leaf disks cv. Baby are placed on agar in multiwell plates (24-well format) and sprayed with the formulated test compound diluted in water. The leaf disks are inoculated with a spore suspension of the fungus 2 days after application. The inoculated leaf disks are incubated at 23° C./21° C. […] […]-185.

[1] = tested on: Botryotinia fuckeliana (Botrytis cinerea); assay: Botryotinia fuckeliana (Botrytis cinerea) / liquid culture (gray mould); format: cell-based; settings: Vogels broth, 24° C., 3-4 days after application, read-out: control of Botryotinia fuckeliana (inhibition of growth, photometric)
Method in brief: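 Botrytis cinerea conidia in Vogels broth were added to compound supplied as DMSO solution. Plates were incubated at 24 °C, and growth inhibition was read photometrically 3-4 days after application.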

[2] = tested on: Glomerella lagenarium (Colletotrichum lagenarium); assay: Glomerella lagenarium (Colletotrichum lagenarium) / liquid culture (anthracnose); format: cell-based; settings: Colletotrichum orbiculare, PDB potato dextrose broth, 24° C., 3-4 days after application, read-out: control of Glomerella lagenarium (inhibition of growth, photometric)
Method in brief: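 Fungal growth inhibition measured photometrically 3-4 days post-application at 24° C. Spores were mixed directly into potato dextrose broth and dispensed onto test compound supplied in DMSO.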

[3] = tested on: Blumeria graminis f. sp. tritici (Erysiphe graminis f. sp. tritici); assay: Blumeria graminis f. sp. tritici / wheat / leaf disc preventative (powdery mildew on wheat); format: in vivo; settings: foliar, wheat leaf segments cv. Kanzler, inoculated 1 day after application, assessed 6-8 days after application, read-out: control of Blumeria graminis f. sp. tritici (percent disease control compared to untreated)
Excerpt: Example B4: Blumeria graminis f. sp. tritici (Erysiphe graminis f. sp. tritici)/Wheat/Leaf Disc Preventative (Powdery Mildew on Wheat) Wheat leaf segments cv. Kanzler are placed on agar in a multiwell plate (24-well format) and sprayed with the formulated test compound diluted in water. The leaf disks are inoculated by shaking powdery mildew infected plants above the test plates 1 day after application. […] […]-192.

Fusarium culmorum = assay: microbe, parasite or virus in culture; format: cell-based; settings: read-out: control of Fusarium culmorum (inhibition of growth, photometric)
[4] = tested on: Phaeosphaeria nodorum (Septoria nodorum); assay: Phaeosphaeria nodorum (Septoria nodorum) / wheat / leaf disc preventative (glume blotch); format: in vivo; settings: Parastagonospora nodorum, foliar, wheat leaf segments cv. Kanzler, inoculated 2 days after application, assessed 5-7 days after application, read-out: control of Phaeosphaeria nodorum (percent disease control compared to untreated)
Method in brief: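 Wheat cv. Kanzler leaf discs on agar were sprayed with formulated compound diluted in water and inoculated with spores 2 days later. Discs were kept at 20° C, 75% rh, 12 h light/dark; percent disease control versus untreated was scored 5-7 days after application.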

[5] = tested on: Monographella nivalis (Microdochium nivale); assay: Monographella nivalis (Microdochium nivale) / liquid culture (foot rot cereals); format: cell-based; settings: PDB potato dextrose broth, 24° C., 4-5 days after application, read-out: control of Monographella nivalis (inhibition of growth, photometric)
Method in brief: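 Growth inhibition measured by photometry 4-5 days post-application at 24° C. Compound was dispensed as DMSO solution, then PDB broth containing conidia from cryogenic storage was added.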

[6] = tested on: Mycosphaerella arachidis (Cercospora arachidicola); assay: Mycosphaerella arachidis (Cercospora arachidicola) / liquid culture (early leaf spot); format: cell-based; settings: PDB potato dextrose broth, 24° C., 4-5 days after application, read-out: control of Mycosphaerella arachidis (inhibition of growth, photometric)
Method in brief: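 Conidia from cryogenic storage suspended in potato dextrose broth and added to compound in DMSO. Incubation at 24° C; growth inhibition read photometrically 4-5 days after application.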

[7] = tested on: Puccinia recondita f. sp. tritici; assay: Puccinia recondita f. sp. tritici / wheat / leaf disc preventative (brown rust); format: in vivo; settings: foliar, wheat leaf segments cv. Kanzler, inoculated 1 day after application, assessed 7-9 days after application, read-out: control of Puccinia recondita f. sp. tritici, preventative (percent disease control compared to untreated)
Method in brief: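 Wheat leaf segments (cv. Kanzler) on agar were sprayed with formulated compound, then inoculated with spores 1 day later. Segments were incubated at 19 °C, 75% rh with 12 h light/dark. Percent disease control versus untreated was scored 7–9 days after application.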

[8] = tested on: Magnaporthe grisea (Pyricularia oryzae); assay: whole plant or invertebrate; format: in vivo; settings: foliar, read-out: control of Magnaporthe grisea (percent disease control compared to untreated)
Pyrenophora teres = Pyrenophora teres / barley / leaf disc preventative (net blotch); format: in vivo; settings: foliar, barley leaf segments cv. Hasso, inoculated 2 days after application, assessed 5-7 days after application, read-out: control of Pyrenophora teres (disease control compared to untreated)
Method in brief: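 Barley cv. Hasso leaf discs on agar were sprayed with diluted formulated compound, then inoculated with spore suspension 2 days later. Incubation at 20 °C, 65% rh, 12 h light/dark; disease control versus untreated assessed 5-7 days after application.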

[9] = tested on: Mycosphaerella graminicola (Septoria tritici); assay: Mycosphaerella graminicola (Septoria tritici) / liquid culture (Septoria blotch); format: cell-based; settings: Zymoseptoria tritici, PDB potato dextrose broth, 24° C., 4-5 days after application, read-out: control of Mycosphaerella graminicola (inhibition of growth, photometric)
Method in brief: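 Fungal growth inhibition was read photometrically 4-5 days after application. Compound was dosed from a DMSO solution into liquid cultures of spores in potato dextrose broth, incubated at 24° C.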

[10] = tested on: Puccinia recondita f. sp. tritici; assay: Puccinia recondita f. sp. tritici / wheat / leaf disc curative (brown rust); format: in vivo; settings: foliar, wheat leaf segments cv. Kanzler, compound applied 1 day after inoculation, assessed 6-8 days after application, read-out: control of Puccinia recondita f. sp. tritici, curative (percent disease control compared to untreated)
Method: Example B10: Puccinia recondita f. sp. tritici/Wheat/Leaf Disc Curative (Brown Rust) Wheat leaf segments cv. Kanzler are placed on agar in multiwell plates (24-well format). The leaf segments are inoculated with a spore suspension of the fungus. Plates are stored in darkness at 19° C. and 75% rh. The formulated test compound diluted in water is applied 1 day after inoculation. […] […]-185.

Sclerotinia sclerotiorum = Sclerotinia sclerotiorum / liquid culture (cottony rot); format: cell-based; settings: PDB potato dextrose broth, mycelia fragments, 24° C., 3-4 days after application, read-out: control of Sclerotinia sclerotiorum (inhibition of growth, photometric)
Method in brief: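 Mycelial fragments of a fresh liquid culture in potato dextrose broth were added to compound dispensed from DMSO solution. Plates were incubated at 24° C. Growth inhibition was measured photometrically 3–4 days after application.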

COc1ccc(Nc2cc(F)cc(F)c2)nc1C(=O)NC1CCC1(C)C (stereo not shown) [Compound P-7, 6-(3,5-difluoroanilino)-N-(2,2-dimethylcyclobutyl)-3-methoxy-pyridine-2-carboxamide]
≥ 80%: pest or weed control at 200 ppm (Alternaria solani) | inhibition at 20 ppm [1] | inhibition at 20 ppm [2] | pest or weed control at 200 ppm [3] | inhibition at 20 ppm (Fusarium culmorum) | pest or weed control at 200 ppm [4] | inhibition at 20 ppm [5] | inhibition at 20 ppm [6] | pest or weed control at 200 ppm [7] | pest or weed control at 200 ppm [8] | pest or weed control at 200 ppm (Pyrenophora teres) | inhibition at 20 ppm [9]

COc1ccc(Nc2cc(F)cc(F)c2)nc1C(=O)NC1(C)CCCC1 [Compound P-107, 6-(3,5-difluoroanilino)-3-methoxy-N-(1-methylcyclopentyl)pyridine-2-carboxamide]
≥ 80%: pest or weed control at 200 ppm (Alternaria solani) | inhibition at 20 ppm [2] | pest or weed control at 200 ppm [3] | inhibition at 20 ppm (Fusarium culmorum) | pest or weed control at 200 ppm [4] | inhibition at 20 ppm [5] | inhibition at 20 ppm [6] | pest or weed control at 200 ppm [10] | pest or weed control at 200 ppm [7] | pest or weed control at 200 ppm [8] | pest or weed control at 200 ppm (Pyrenophora teres) | inhibition at 20 ppm (Sclerotinia sclerotiorum) | inhibition at 20 ppm [9]

COc1ccc(Nc2cc(F)cc(F)c2)nc1C(=O)NC1(C)CCCCC1 [Compound P-108, 6-(3,5-difluoroanilino)-3-methoxy-N-(1-methylcyclohexyl)pyridine-2-carboxamide]
≥ 80%: inhibition at 20 ppm [2] | pest or weed control at 200 ppm [3] | inhibition at 20 ppm (Fusarium culmorum) | inhibition at 20 ppm [5] | inhibition at 20 ppm [6] | pest or weed control at 200 ppm [7] | pest or weed control at 200 ppm [8] | pest or weed control at 200 ppm (Pyrenophora teres) | inhibition at 20 ppm (Sclerotinia sclerotiorum) | inhibition at 20 ppm [9]

CCC1(NC(=O)c2nc(Nc3cc(F)cc(F)c3)ccc2OC)CCC1 [Compound P-178, 6-(3,5-difluoroanilino)-N-(1-ethylcyclobutyl)-3-methoxy-pyridine-2-carboxamide]
≥ 80%: pest or weed control at 200 ppm (Alternaria solani) | inhibition at 20 ppm [1] | inhibition at 20 ppm [2] | pest or weed control at 200 ppm [3] | inhibition at 20 ppm (Fusarium culmorum) | pest or weed control at 200 ppm [4] | inhibition at 20 ppm [5] | inhibition at 20 ppm [6] | pest or weed control at 200 ppm [10] | pest or weed control at 200 ppm [7] | pest or weed control at 200 ppm (Pyrenophora teres) | inhibition at 20 ppm [9]

COc1ccc(Nc2cc(F)cc(F)c2)nc1C(=O)NC1(C(C)C)CCC1 [Compound P-179, 6-(3,5-difluoroanilino)-N-(1-isopropylcyclobutyl)-3-methoxy-pyridine-2-carboxamide]
≥ 80%: pest or weed control at 200 ppm (Alternaria solani) | inhibition at 20 ppm [1] | inhibition at 20 ppm [2] | pest or weed control at 200 ppm [3] | inhibition at 20 ppm (Fusarium culmorum) | pest or weed control at 200 ppm [4] | inhibition at 20 ppm [5] | inhibition at 20 ppm [6] | pest or weed control at 200 ppm [7] | pest or weed control at 200 ppm (Pyrenophora teres) | inhibition at 20 ppm [9]
